Key:
Cdc7 = Cdc7 (Homo sapiens, UniProt O00311); test: Cdc7 biochemical assay, ADPGlo assay format
Protocol: The biochemical activity of compounds was determined by incubation with specific enzymes and substrate, followed by quantification of the ADP product. Compounds were 4-fold serially diluted from 10 to 0.0006 uM; in the case of the pre-incubation step, the enzyme is added to the inhibitor solution and the mixture is left to incubate for 30 minutes at room temperature (r.t.). The reaction started with the addition of the substrate and the ATP, when the enzyme was already present in the preincubation step, or substrate, ATP and enzyme when the preincubation step was not present. The concentrations of ATP, substrate and reaction buffer are described above. The assays were run in a robotized format on 384-well plates. […] At the end of the incubation time, an equal volume of ADPGlo Reagent 1 (Promega) was added to stop the reaction and to remove all unreacted ATP. After 60 minutes, an equal volume of ADPGlo Reagent 2 (Promega) was added to convert ADP in ATP and then ATP in light by luciferase reaction.
y=bottom+(top−bottom)/(1+10^((log IC50−x)*slope))
where x is the logarithm of the inhibitor concentration, y is the response; y starts at bottom and goes to top with a sigmoid shape.

[1] = target: T1, aldehyde oxidases (human liver cytosol) (Homo sapiens, UniProt Q06278); assay type: in vitro ADME; details: human liver cytosol 1 mg/mL, 1 μM compound; for HLC % remaining (1 h incub.): 60 min incubation; for HLC % remaining (1 h incub.) / HLC T½ min: pH 7.4, 37° C.; for IntCl (Intrinsic Clearance): half-life approach
T1 construct: added to human liver cytosol (1 mg/mL protein content); from tissue; host or cells: human liver cytosol
T1 sequence (Q06278 whole entry): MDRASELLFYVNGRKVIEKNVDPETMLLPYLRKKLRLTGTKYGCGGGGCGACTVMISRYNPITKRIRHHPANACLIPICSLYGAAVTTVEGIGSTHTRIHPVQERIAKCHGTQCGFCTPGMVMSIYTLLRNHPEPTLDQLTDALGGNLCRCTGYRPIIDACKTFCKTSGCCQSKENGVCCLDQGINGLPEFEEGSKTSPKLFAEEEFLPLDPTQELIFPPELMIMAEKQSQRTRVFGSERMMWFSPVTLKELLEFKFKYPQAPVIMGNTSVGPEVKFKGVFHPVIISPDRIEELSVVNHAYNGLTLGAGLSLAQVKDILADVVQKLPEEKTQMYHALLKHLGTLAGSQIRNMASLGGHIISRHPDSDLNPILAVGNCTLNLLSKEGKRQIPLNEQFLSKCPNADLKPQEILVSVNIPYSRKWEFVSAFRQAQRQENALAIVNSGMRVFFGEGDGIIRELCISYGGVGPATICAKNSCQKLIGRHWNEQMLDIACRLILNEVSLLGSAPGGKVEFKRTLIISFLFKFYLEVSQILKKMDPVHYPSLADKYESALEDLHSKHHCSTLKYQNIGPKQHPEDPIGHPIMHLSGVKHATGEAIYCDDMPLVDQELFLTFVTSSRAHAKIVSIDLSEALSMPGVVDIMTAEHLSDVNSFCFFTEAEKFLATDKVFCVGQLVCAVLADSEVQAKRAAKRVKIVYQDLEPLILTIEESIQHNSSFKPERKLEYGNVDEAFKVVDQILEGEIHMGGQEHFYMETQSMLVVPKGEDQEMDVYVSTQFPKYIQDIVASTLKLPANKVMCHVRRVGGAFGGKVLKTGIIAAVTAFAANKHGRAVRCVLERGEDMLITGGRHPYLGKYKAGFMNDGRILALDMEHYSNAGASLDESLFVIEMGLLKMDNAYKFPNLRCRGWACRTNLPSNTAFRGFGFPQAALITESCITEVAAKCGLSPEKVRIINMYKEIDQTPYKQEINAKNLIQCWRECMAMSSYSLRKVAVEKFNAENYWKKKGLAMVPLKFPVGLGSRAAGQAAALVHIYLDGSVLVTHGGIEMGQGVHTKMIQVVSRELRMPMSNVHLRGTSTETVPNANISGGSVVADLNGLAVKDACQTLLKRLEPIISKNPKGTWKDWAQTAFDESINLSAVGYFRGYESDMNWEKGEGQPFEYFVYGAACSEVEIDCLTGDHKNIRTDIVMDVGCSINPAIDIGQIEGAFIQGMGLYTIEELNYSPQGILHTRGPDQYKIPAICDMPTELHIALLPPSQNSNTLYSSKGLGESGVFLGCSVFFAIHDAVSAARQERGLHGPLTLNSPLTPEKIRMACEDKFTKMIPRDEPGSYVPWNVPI
Protocol: The aldehyde oxidases involvement in the metabolism of the test item was determined by comparison of the intrinsic clearance values in the presence and absence of aldehyde oxidases inhibitor hydralazine hydrochloride. The purpose of the study was to evaluate the in-vitro intrinsic clearance, the metabolic stability towards aldehyde oxidases (AO) activity and the metabolism of the test item in human liver cytosol. The intrinsic clearance was determined using the half-life approach, by measuring the substrate disappearance along 60 minutes incubation with human liver cytosol. Incubations were performed at the concentration of 1 μM. […] HPLC-MS/MS was used for the detection of the compound left over during the incubation. For intrinsic clearance determination samples were analyzed by high performance liquid chromatography (HPLC) on-line with mass spectrometry (MS) equipment. For the determination of aldehyde oxidases activity (i.e. positive control) of cytosol, phthalazine was incubated with human liver cytosol in presence and absence of the aldehyde oxidases inhibitor. On the day of the incubation, the compound was dissolved in DMSO at the concentration of 10 mM. Aliquots of this solution were added to the test system to a final concentration of […]. The percentage of DMSO in the final incubates was […]. Aliquots of the test item were added to human liver cytosol (1 mg/mL protein content) in Dulbecco's buffer, pH 7.4 at 37° C., to reach final concentration of 1 μM. Incubations were performed in a 48-well plate, under shaking. At 0, 5, 10, 20, 30 and 60 minutes incubation, 50 μL aliquots of the incubate were sampled, poured in 80 μL of ice-cold acetonitrile and 20 μL of 1 μM warfarin in acetonitrile (injection control) and centrifuged at 2500 rpm for 20 minutes. The supernatant was immediately analysed by LC-MS/MS.
The test item was incubated in parallel, in duplicate, at the concentration of 1 μM in Dulbecco's buffer, pH 7.4 for 60 min at 37° C. in the presence of 10 μM hydralazine hydrochloride (aldehyde oxidases inhibitor).
The chemical stability of the test item was checked in parallel by incubating the test item in single at the concentration of 1 μM in Dulbecco's buffer, pH 7.4 for 60 min at 37° C. (negative control).
The intrinsic clearance (CLint) was calculated using the half-life approach. Half-life and CLint were determined from the concentration (area counts) remaining at the different sampling points using the LC-MS/MS method. By plotting the natural logarithmic area of the compound remaining against the time, the slope was calculated by linear regression analysis and converted into the half-life (t½) and CLint expressed as μL/min/mg protein according to the following formulae: […]

Chain of Cdc7 (O00311 whole entry): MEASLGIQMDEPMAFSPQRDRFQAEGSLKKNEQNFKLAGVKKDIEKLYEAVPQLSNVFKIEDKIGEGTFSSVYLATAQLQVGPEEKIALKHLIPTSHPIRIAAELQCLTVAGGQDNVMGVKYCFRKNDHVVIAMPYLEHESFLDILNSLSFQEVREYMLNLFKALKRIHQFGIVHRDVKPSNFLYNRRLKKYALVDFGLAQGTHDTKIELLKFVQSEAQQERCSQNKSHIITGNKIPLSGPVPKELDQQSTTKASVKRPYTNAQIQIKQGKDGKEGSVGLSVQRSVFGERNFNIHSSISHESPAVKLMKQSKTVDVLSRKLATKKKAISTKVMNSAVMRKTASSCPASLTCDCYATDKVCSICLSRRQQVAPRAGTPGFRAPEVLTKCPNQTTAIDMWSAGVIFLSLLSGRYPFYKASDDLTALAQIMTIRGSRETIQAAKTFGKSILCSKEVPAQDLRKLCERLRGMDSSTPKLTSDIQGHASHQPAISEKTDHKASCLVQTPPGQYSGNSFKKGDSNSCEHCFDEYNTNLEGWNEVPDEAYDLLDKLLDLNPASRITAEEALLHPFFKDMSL
Chain of Cdc7 (Q9UBU7 whole entry partner): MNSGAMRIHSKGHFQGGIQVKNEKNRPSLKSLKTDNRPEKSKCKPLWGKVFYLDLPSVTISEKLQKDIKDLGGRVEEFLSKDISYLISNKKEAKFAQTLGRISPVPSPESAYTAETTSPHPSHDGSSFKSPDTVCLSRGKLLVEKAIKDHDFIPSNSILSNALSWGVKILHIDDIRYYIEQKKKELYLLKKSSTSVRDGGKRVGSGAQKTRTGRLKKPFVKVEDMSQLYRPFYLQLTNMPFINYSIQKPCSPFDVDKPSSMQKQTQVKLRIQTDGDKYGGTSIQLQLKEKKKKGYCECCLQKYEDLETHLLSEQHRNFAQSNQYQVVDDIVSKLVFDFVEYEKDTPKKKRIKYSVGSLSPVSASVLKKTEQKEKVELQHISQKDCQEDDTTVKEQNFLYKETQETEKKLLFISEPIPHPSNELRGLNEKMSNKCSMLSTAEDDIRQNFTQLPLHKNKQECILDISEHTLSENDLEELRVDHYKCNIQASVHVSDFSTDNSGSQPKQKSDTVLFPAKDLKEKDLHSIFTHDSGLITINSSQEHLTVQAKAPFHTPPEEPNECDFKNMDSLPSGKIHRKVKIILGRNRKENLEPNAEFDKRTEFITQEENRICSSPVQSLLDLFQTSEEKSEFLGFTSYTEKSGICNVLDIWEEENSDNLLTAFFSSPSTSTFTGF

Structure (SMILES) | IC50 (Cdc7) [nM] | also measured
COc1ccc(-c2[nH]c(-c3ccnc4[nH]ccc34)cc2C(N)=O)c(C(F)(F)F)c1 [comp 16, 2-[4-methoxy-2-(trifluoromethyl)phenyl]-5-(1H-pyrrolo[2,3-b]pyridin-4-yl)-1H-pyrrole-3-carboxamide] | 6 | 
NC(=O)c1cc(-c2ccnc3[nH]ccc23)[nH]c1-c1ccc(OC(F)F)cc1Cl [comp 17, 2-[2-chloro-4-(difluoromethoxy)phenyl]-5-(1H-pyrrolo[2,3-b]pyridin-4-yl)-1H-pyrrole-3-carboxamide] | 1 | 
NC(=O)c1cc(-c2ccnc3[nH]ccc23)[nH]c1-c1ccc(Cl)c(Cl)c1 [comp 18, 2-(3,4-dichlorophenyl)-5-(1H-pyrrolo[2,3-b]pyridin-4-yl)-1H-pyrrole-3-carboxamide] | 31 | 
NC(=O)c1cc(-c2ccnc3[nH]ccc23)[nH]c1-c1ccc(F)c(F)c1 [comp 19, 2-(3,4-difluorophenyl)-5-(1H-pyrrolo[2,3-b]pyridin-4-yl)-1H-pyrrole-3-carboxamide] | 15 | 
CCOc1cccc(-c2[nH]c(-c3ccnc4[nH]ccc34)cc2C(N)=O)c1F [comp 20, 2-(3-ethoxy-2-fluorophenyl)-5-(1H-pyrrolo[2,3-b]pyridin-4-yl)-1H-pyrrole-3-carboxamide] | 5 | 
Cc1ccc(-c2[nH]c(-c3ccnc4[nH]ccc34)cc2C(N)=O)cc1[N+](=O)[O-] [comp 21, 2-(4-methyl-3-nitrophenyl)-5-(1H-pyrrolo[2,3-b]pyridin-4-yl)-1H-pyrrole-3-carboxamide] | 34 | 
NC(=O)c1cc(-c2[nH]c(-c3ccnc4[nH]ccc34)cc2C(N)=O)ccc1F [comp 22, 2-(3-carbamoyl-4-fluorophenyl)-5-(1H-pyrrolo[2,3-b]pyridin-4-yl)-1H-pyrrole-3-carboxamide] | 27 | 
Cc1ccc(-c2[nH]c(-c3ccnc4[nH]ccc34)cc2C(=O)NCCN(C)C)c(F)c1 [comp 24, N-[2-(dimethylamino)ethyl]-2-(2-fluoro-4-methylphenyl)-5-(1H-pyrrolo[2,3-b]pyridin-4-yl)-1H-pyrrole-3-carboxamide] | 741 | 
Cc1ccc(-c2[nH]c(-c3ccnc4[nH]ccc34)cc2C(=O)N[C@H]2CCCC[C@H]2N)c(F)c1 [comp 26, N-[(1S,2R)-2-aminocyclohexyl]-2-(2-fluoro-4-methylphenyl)-5-(1H-pyrrolo[2,3-b]pyridin-4-yl)-1H-pyrrole-3-carboxamide] | 12 | 
Cc1ccc(-c2[nH]c(-c3ccnc4[nH]ccc34)cc2C(=O)NCc2ccco2)c(F)c1 [comp 27, 2-(2-fluoro-4-methylphenyl)-N-(furan-2-ylmethyl)-5-(1H-pyrrolo[2,3-b]pyridin-4-yl)-1H-pyrrole-3-carboxamide] | 61 | 
Cc1ccc(-c2[nH]c(-c3ccnc4[nH]ccc34)cc2C(=O)NCCF)c(F)c1 [comp 28, N-(fluoroethyl)-2-(2-fluoro-4-methylphenyl)-5-(1H-pyrrolo[2,3-b]pyridin-4-yl)-1H-pyrrole-3-carboxamide] | 67 | 
Cc1ccc(-c2[nH]c(-c3ccnc4[nH]ccc34)cc2C(=O)NC2CCN(C)CC2)c(F)c1 [comp 30, 2-(2-fluoro-4-methylphenyl)-N-(1-methylpiperidin-4-yl)-5-(1H-pyrrolo[2,3-b]pyridin-4-yl)-1H-pyrrole-3-carboxamide] | 3130 | 
NC(=O)c1cc(-c2ccnc3[nH]ccc23)[nH]c1-c1cccc2c1sc1ccccc12 [comp 31, 2-(dibenzo[b,d]thiophen-4-yl)-5-(1H-pyrrolo[2,3-b]pyridin-4-yl)-1H-pyrrole-3-carboxamide] | 759 | 
Cc1ccc(-c2[nH]c(-c3ccnc4[nH]ccc34)cc2C(N)=O)c2ccccc12 [comp 32, 2-(4-methylnaphthalen-1-yl)-5-(1H-pyrrolo[2,3-b]pyridin-4-yl)-1H-pyrrole-3-carboxamide] | 17 | 
NC(=O)c1cc(-c2ccnc3[nH]ccc23)[nH]c1-c1cccc(F)c1 [comp 33, 2-(3-fluorophenyl)-5-(1H-pyrrolo[2,3-b]pyridin-4-yl)-1H-pyrrole-3-carboxamide] | 14 | 
NC(=O)c1cc(-c2ccnc3[nH]ccc23)[nH]c1-c1ccc(OC(F)(F)F)cc1 [comp 34, 5-(1H-pyrrolo[2,3-b]pyridin-4-yl)-2-[4-(trifluoromethoxy)phenyl]-1H-pyrrole-3-carboxamide] | 42 | 
NC(=O)c1cc(-c2ccnc3[nH]ccc23)[nH]c1-c1csc2ccccc12 [comp 35, 2-(1-benzothiophen-3-yl)-5-(1H-pyrrolo[2,3-b]pyridin-4-yl)-1H-pyrrole-3-carboxamide] | 7 | 
NC(=O)c1cc(-c2ccnc3[nH]ccc23)[nH]c1-c1ccc2c(c1)OCCO2 [comp 36, 2-(2,3-dihydro-1,4-benzodioxin-6-yl)-5-(1H-pyrrolo[2,3-b]pyridin-4-yl)-1H-pyrrole-3-carboxamide] | 10 | 
Cc1cc(F)ccc1-c1[nH]c(-c2ccnc3[nH]ccc23)cc1C(N)=O [comp 37, 2-(4-fluoro-2-methylphenyl)-5-(1H-pyrrolo[2,3-b]pyridin-4-yl)-1H-pyrrole-3-carboxamide] | 2 | 
Cc1ccc(-c2[nH]c(-c3ccnc4[nH]ccc34)c(I)c2C(N)=O)c(F)c1 [comp 38, 2-(2-fluoro-4-methylphenyl)-4-iodo-5-(1H-pyrrolo[2,3-b]pyridin-4-yl)-1H-pyrrole-3-carboxamide] | 101 | 
Cc1ccc(-c2[nH]c(-c3ccnc4[nH]ccc34)c(Br)c2C(N)=O)c(F)c1 [comp 39, 2-(2-fluoro-4-methylphenyl)-4-bromo-5-(1H-pyrrolo[2,3-b]pyridin-4-yl)-1H-pyrrole-3-carboxamide] | 159 | 
CCc1c(-c2ccnc3[nH]ccc23)[nH]c(-c2ccc(C)cc2F)c1C(N)=O [comp 40, 4-ethyl-2-(2-fluoro-4-methylphenyl)-5-(1H-pyrrolo[2,3-b]pyridin-4-yl)-1H-pyrrole-3-carboxamide] | 717 | 
NC(=O)c1cc(-c2csc(N)n2)[nH]c1-c1ccc(Cl)cc1Cl [compound 45, 5-(2-amino-1,3-thiazol-4-yl)-2-(2,4-dichlorophenyl)-1H-pyrrole-3-carboxamide] |  | HLC % remaining (1 h incub.) [1]: 98%; IntCl (Intrinsic Clearance) [1]: 2.9 μL/min/mg protein; HLC T½ min [1]: 3.98 h
NC(=O)c1cc(-c2ccnc3[nH]ncc23)[nH]c1-c1ccc(Cl)cc1Cl [compound 47, 2-(2,4-dichlorophenyl)-5-(1H-pyrazolo[3,4-b]pyridin-4-yl)-1H-pyrrole-3-carboxamide] | 4 | 
Cc1ccc(-c2[nH]c(-c3c[nH]nc3C)cc2C(N)=O)c(F)c1 [compound 52, 2-(2-fluoro-4-methylphenyl)-5-(3-methyl-1H-pyrazol-4-yl)-1H-pyrrole-3-carboxamide] |  | HLC % remaining (1 h incub.) [1]: 100%; IntCl (Intrinsic Clearance) [1]: 2.9 μL/min/mg protein; HLC T½ min [1]: 3.98 h
Cc1ccc(-c2[nH]c(-c3ccnc4[nH]ccc34)cc2C(N)=O)c(F)c1 [compound 53, 2-(2-fluoro-4-methylphenyl)-5-(1H-pyrrolo[2,3-b]pyridin-4-yl)-1H-pyrrole-3-carboxamide] |  | HLC % remaining (1 h incub.) [1]: 100%; IntCl (Intrinsic Clearance) [1]: 2.9 μL/min/mg protein; HLC T½ min [1]: 3.98 h
NC(=O)c1cc(-c2ccnc3[nH]ccc23)n(CCO)c1-c1ccc(Cl)cc1Cl [compound 54, 2-(2,4-dichlorophenyl)-1-(2-hydroxyethyl)-5-(1H-pyrrolo[2,3-b]pyridin-4-yl)-1H-pyrrole-3-carboxamide] | 418 | 
